The structures appear in SMILES notation.

Broadly, the IC50 is the point on the concentration scale where inhibition reaches its midpoint. A lower IC50 goes with greater potency. The term EC50 denotes the concentration giving half of the maximal effect. Read a high EC50 as lower potency in that assay.

The target in assay [1] is T1, RORγt (Homo sapiens, UniProt P51449).
T1 construct: gene RORC; RORγt-LBD
In words: FRET coactivator-peptide recruitment assay with human RORγt-LBD (inverse agonist, max. -[…]). In kind it is binding.

The target of assay [2] is T1, RORγt. In words: FRET coactivator-peptide recruitment assay with human RORγt-LBD (agonist, max. act. […]). Type of assay: binding.

T1 sequence (Q15788 2-1441): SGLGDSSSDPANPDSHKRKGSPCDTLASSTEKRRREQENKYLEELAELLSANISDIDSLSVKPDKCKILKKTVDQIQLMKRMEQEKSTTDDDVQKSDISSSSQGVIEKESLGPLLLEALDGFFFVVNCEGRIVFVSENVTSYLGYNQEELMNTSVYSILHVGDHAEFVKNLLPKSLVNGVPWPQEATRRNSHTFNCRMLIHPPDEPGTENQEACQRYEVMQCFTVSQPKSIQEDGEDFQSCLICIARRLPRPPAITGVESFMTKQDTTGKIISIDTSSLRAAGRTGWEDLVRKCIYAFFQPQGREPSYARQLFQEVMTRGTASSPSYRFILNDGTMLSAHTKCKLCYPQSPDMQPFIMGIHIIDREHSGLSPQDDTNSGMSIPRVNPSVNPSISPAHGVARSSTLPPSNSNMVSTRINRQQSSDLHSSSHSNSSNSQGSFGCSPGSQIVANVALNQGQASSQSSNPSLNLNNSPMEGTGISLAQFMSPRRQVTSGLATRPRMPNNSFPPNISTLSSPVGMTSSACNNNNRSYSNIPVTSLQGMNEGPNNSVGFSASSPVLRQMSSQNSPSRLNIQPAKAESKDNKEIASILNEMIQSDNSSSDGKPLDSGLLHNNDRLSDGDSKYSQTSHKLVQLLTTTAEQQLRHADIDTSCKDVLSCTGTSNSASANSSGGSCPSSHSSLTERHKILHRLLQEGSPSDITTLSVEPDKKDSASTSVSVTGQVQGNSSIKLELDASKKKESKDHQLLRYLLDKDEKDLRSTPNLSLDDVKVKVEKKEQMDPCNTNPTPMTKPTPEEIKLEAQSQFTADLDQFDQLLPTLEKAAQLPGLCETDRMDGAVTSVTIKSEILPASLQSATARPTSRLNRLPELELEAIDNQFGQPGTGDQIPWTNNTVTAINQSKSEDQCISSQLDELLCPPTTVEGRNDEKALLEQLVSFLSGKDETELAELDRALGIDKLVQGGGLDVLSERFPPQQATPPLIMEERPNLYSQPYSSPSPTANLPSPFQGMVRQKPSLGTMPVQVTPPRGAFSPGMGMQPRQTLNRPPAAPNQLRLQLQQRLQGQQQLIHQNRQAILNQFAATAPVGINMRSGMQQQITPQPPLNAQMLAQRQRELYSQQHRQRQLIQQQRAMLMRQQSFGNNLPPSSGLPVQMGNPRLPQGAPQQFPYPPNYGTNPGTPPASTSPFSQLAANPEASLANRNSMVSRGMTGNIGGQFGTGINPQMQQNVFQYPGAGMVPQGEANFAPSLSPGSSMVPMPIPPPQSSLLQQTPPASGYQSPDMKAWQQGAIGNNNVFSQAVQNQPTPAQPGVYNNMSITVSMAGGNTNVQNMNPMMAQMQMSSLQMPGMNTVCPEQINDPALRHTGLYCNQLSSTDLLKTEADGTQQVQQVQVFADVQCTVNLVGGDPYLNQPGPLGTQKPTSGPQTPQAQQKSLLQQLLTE
T1 sequence (P51449 265-507): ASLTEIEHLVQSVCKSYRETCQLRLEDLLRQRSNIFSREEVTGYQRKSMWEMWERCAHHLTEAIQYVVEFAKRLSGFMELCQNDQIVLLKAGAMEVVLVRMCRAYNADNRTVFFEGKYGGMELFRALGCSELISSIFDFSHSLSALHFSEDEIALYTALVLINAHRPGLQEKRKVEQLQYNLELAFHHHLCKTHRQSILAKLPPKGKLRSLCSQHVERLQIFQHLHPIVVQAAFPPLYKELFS

`CC(=O)N1CCN(c2ccc(N(C3CCC3)S(=O)(=O)Cc3ccccc3)cc2)CC1` [GT] yielded an IC50 in assay [1] of 0.053 µM. `CC(=O)N1CCN(c2ccc3c(c2)CCCN3S(=O)(=O)c2ccccc2)CC1` [compound 1, agonist 1]: the EC50 in assay [2] was 3.7 µM.
